The text below walks through data of patent publication US20220142948A1, “COMPOSITIONS AND METHODS FOR MODULATING METABOLIC REGULATORS OF T CELL PATHOGENICITY” (The Broad Institute, Inc., priority 2019, published 2022).

Assay [1] has as its target T1, ODC (Homo sapiens, UniProt P11926).
T1 sequence (P11926 1-461): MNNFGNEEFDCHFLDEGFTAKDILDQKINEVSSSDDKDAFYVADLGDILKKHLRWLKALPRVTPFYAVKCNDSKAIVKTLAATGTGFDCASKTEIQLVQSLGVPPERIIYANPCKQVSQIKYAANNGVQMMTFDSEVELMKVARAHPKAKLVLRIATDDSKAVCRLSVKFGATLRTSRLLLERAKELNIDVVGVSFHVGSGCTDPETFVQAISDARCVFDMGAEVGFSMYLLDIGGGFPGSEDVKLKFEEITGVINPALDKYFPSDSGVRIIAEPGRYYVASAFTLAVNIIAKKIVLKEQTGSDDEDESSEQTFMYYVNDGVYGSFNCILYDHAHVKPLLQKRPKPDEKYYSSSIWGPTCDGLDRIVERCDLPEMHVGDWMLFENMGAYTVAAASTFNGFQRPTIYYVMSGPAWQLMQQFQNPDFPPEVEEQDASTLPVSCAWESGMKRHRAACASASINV
The settings on record: cited from earlier work.

Assay [2] relates to Th17 cells (Th17n, Th17p). As to the kind of experiment: Legendplex analysis of cytokines in culture supernatant. It is filed as cell-based, mouse. On the procedure: Legendplex. Cytokine concentrations in supernatants of in vitro cultures were analyzed by the LegendPlex Mouse Th Cytokine Panel (13-plex) (BioLegend) according to the manufacturer's instructions and analyzed on a FACS LSR II (BD Biosciences).
Seahorse assay was performed and seahorse media was prepared following manufacturer instructions (Agilent). Cells were re-stimulated with PMA/ionomycin for four hours in the presence of brefaldin and monensin before analysis for cytokines by intracellular cytokine staining. Cytokine concentrations in supernatants of in vitro cultures were analyzed by the LegendPlex Mouse Th Cytokine Panel (13-plex) (BioLegend) according to the manufacturer's instructions and analyzed on a FACS LSR II (BD Biosciences).

For assay [3], the system named is Th17 cells (Th17n, Th17p). As to the kind of experiment: Protein, phospho-protein and histone mark analysis by flow cytometry. It is filed as cell-based, mouse. The method, then: Proliferation was assessed by staining with CellTrace Violet (Thermo Fisher Scientific) per manufacturer's instructions. Apoptosis was assessed using Annexin V staining kit (BioLegend). Phosphorylation of proteins to determine cell signaling was performed with BD Phosflow buffer system (BD bioscience) as per manufacturer's instructions.
T cell differentiation culture and flow cytometry. Naïve CD4+CD44-CD62L+CD25− T cells were sorted using BD FACSAria sorter and activated with plate-bound anti-CD3 (1 μg/ml) and antiCD28 antibodies (1 μg/ml) in the presence of cytokines at a concentration of 5×10^5 cells/ml. For T cell differentiations the following combinations of cytokines were used: pathogenic Th17: 25 ng/ml rmIL-6, 20 ng/ml rmIL-1b (both Miltenyi Biotec) and 20 ng/ml rmIL-23 (R&D systems); non-pathogenic Th17: 25 ng/ml rmIL-6 and 2 ng/ml of rhTGFb1 (Miltenyi Biotec); iTreg: 2 ng/ml of rhTGFb1; Th1: 20 ng/ml rmIL-12 (R&D systems); Th2: 20 ng/ml rmIL-4 (Miltenyi Biotec). Intracellular cytokine staining was performed after incubation for 4-6h with Cell Stimulation cocktail plus Golgi transport inhibitors (Thermo Fisher Scientific) using the BD Cytofix/Cytoperm buffer set (BD Biosciences) per manufacturer's instructions. Transcription factor staining was performed using the Foxp3/Transcription Factor Staining Buffer Set (eBioscience). Proliferation was assessed by staining with CellTrace Violet (Thermo Fisher Scientific) per manufacturer's instructions. Apoptosis was assessed using Annexin V staining kit (BioLegend). Phosphorylation of proteins to determine cell signaling was performed with BD Phosflow buffer system (BD bioscience) as per manufacturer's instructions.

For assay [4], the system named is Th17 cells (Th17n, Th17p). Description: qPCR of in vitro differentiated T cells. It is filed as cell-based, mouse. On the procedure:
qPCR. RNA was isolated using RNeasy Plus Mini Kit (Qiagen) and reverse transcribed to cDNA with iScript cDNA Synthesis Kit (Bio-Rad). Gene expression was analyzed by quantitative real-time PCR on a ViiA7 System (Thermo Fisher Scientific) using TaqMan Fast
Advanced Master Mix (Thermo Fisher Scientific) with the following primer/probe sets: Il-17a (Mm00439618_m1), Il-17f (Mm00521423_m1), Foxp3 (Mm00475162_m1), Tead1 (Mm00493507_m1), Taz (Mm00504978_m1), Sat1 (Mm00485911_g1) and Actb (Applied Biosystems). Expression values were calculated relative to Actb detected in the same sample by duplex qPCR.
qPCR. RNA was isolated using RNeasy Plus Mini Kit (Qiagen) and reverse transcribed to cDNA with iScript cDNA Synthesis Kit (Bio-Rad). Gene expression was analyzed by quantitative real-time PCR on a ViiA7 System (Thermo Fisher Scientific) using TaqMan Fast Advanced Master Mix (Thermo Fisher Scientific) with the following primer/probe sets: Ass1 (Mm00711256_m1), Odc1 (Mm02019269_g1), Sat1 (Mm00485911_g1), Srm (Mm00726089_s1), Sms (Mm00786246_s1), Il-17a (Mm00439618_m1), Il-17f (Mm00521423_m1), Foxp3 (Mm00475162_m1), Tead1 (Mm00493507_m1), Taz (Mm00504978_m1), and Actb (Applied Biosystems). Expression values were calculated relative to Actb detected in the same sample by duplex qPCR.

Assay [5] relates to cellular polyamines in Th17p, Th17n and iTregs. Description: Total cellular polyamine content (enzymatic assay, Total Polyamine Assay Kit). Format: cell-based, mouse. The text has this: Polyamine ELISA. Cell pellets of in vitro differentiated cells were frozen down and further processed with the Total Polyamine Assay Kit (BioVision Inc.) according to the manufacturer's instructions.

Setting [6] is: supernatant from both Th17n and Th17p cultures.
Where [7] appears, read: non-pathogenic and pathogenic Th17 cells.

Entries after “also recorded” stand apart in the source; their conditions may differ.

For `NCCC[C@](N)(C(=O)O)C(F)F` [DFMO, 2-(difluoromethyl)ornithine], the “uptake of exogenous putrescine” value in assay [1] (cells treated in vivo with DFMO) was “significantly increase”. Besides, in assay [1] (in vivo), the ODC activity result is given as “irreversibly inhibit”. Further, in assay [2] (Th17n cells, loss of JMJD3, supernatant), the “DFMO-dependent upregulation of IL-10” value is recorded as “reduced”. In addition, in assay [2] (pathogenic Th17 cells), the IL-13 entry is “decreased”. Also, in assay [2] (protein, Th17n and Th17p cultures), the IL-9 result is on record as “promoted; also recorded: promoting”. Also, in assay [2] (setting [6]), the IL-17A entry is given as “significantly inhibited” and the IL-17F entry is reported as “significantly inhibited”. In assay [2] (supernatant, Th17n and Th17p), the IFNg result is “did not consistently influence”, the IL-5 entry was “did not consistently influence”, the IL-10 result is “did not consistently influence” and the IL-13 result is “did not consistently influence”. The TNFa entry in assay [2] (supernatant, Th17n and Th17p) was “did not consistently influence”. The “total Stat3 protein levels” value in assay [3] was “not total Stat3 protein levels”. In assay [3] (Th17 cells), the H3K4 trimethylation result is on record as “promoted”, the H3K9 trimethylation entry is recorded as “promoted”, the H3K27 trimethylation result is listed as “promoted” and the pStat3 result is listed as “does not seem to alter; also recorded: did not alter; also recorded: inconsistently regulated”. For the same compound, the pStat3 result in assay [3] (Th17p cells) is “decreased”. Also, in assay [3] (both types of Th17 cells), the “pFoxo1(S256)” value was “promoted”. Further, the Ass1 expression entry in assay [4] is given as “specifically suppresses”. Besides, the “IL-17 (quantitative real time PCR)” value in assay [4] (CD4 T cells) was “decreased”. In addition, in assay [4] (T cells, Th17n and Th17p), the SAT1 expression result is “reduces the expression; also recorded: decrease; also recorded: specifically suppresses; also recorded: decreases expression; also recorded: consistently suppressed”. Moreover, in assay [4] (setting [7]), the “relative expression of Foxp3” value is “increase”, the “relative expression of IL17A” value was “decrease” and the “relative expression of IL17F” value is reported as “decrease”. Besides, the SAT1 expression result in assay [4] (pathogenic Th17 cells) is recorded as “decreased expression”. Moreover, in assay [5] (Th17n cells), the polyamine concentration result was “decrease; also recorded: suppression of polyamines”. Further, in assay [5] (Th17p cells), the polyamine concentration entry is reported as “decrease; also recorded: suppression of polyamines”. Further, the polyamine concentration entry in assay [5] (iTregs) is recorded as “decrease; also recorded: suppression of polyamines”.

Regarding epigallocatechin-3-gallate [EGCG], the “cytokine profile / cytokine production” value in assay [2] (glycolysis enzyme inhibitors, Th17 cell cultures) is “retained their cytokine profile”.
